Experimental data: patent publication US20240207265A1, “TREATMENT OF CNS DISEASES WITH sGC STIMULATORS” (Tisento Therapeutics Inc., priority 2021, published 2024)

Tests used:
[1] = Microdialysis experiments in rat brain; type: in vivo; details: 3 mg/kg PO as sodium salt, Sprague Dawley rats
Procedure: The goal of the current study was to evaluate levels of sGC stimulators of the invention in the hippocampus and striatum interstitial fluid (ISF), as well as in the circulating plasma after administration to Sprague Dawley male rats. To do so, rats were implanted with microdialysis probes in the hippocampus and striatum and a jugular vein cannula (JVC). After the collection of one pre-dose ISF sample, animals were dosed with sGC stimulator. Samples were collected for 24 hours through a hippocampal and striatal probe as well as serial plasma sampling collected through the JVC after administration. All collected samples were stored at −80° C. waiting for analysis on compound levels in the dialysate.
Five Sprague Dawley rats pre-cannulated with a jugular vein cannula were used for this study. Upon arrival, rats were group-housed in polycarbonate cages (2-3/cage) and acclimated for at least 3 days prior to commencing studies. Animals were housed in a 12 hr light/dark cycle with room temperature maintained at 22+2° C. and approximately 50% humidity and received food and water ad libitum. Rats were tracked via unique identifying numbers. Experiments were conducted in accordance with protocols approved by the Institutional Animal Care and Use Committee of Charles River Laboratories South San Francisco. […]

cGMP = cGMP concentration in rat CSF after single oral dose (CSF biomarker); type: in vivo
Procedure: Rats were administered a single dose of either vehicle or sGC stimulator (1, 3, 10 or 30 mg/kg). One, two and six hours after administration, CSF samples were collected and analyzed to determine cGMP and compound concentrations and plasma samples were collected and analyzed to determine compound concentration. Each rat was sampled one time or multiple times with 3 or more days in between each dosing. The day before the experiment rats were fasted overnight with ad libitum access to water.
On the day of the experiment, compound and cyclic guanosine monophosphate (cGMP) concentrations in rat CSF was determined following oral dosing. Male CD rats implanted with an intracisternal cannula (250-275 g) were used for these studies. Rats were single housed under controlled conditions of temperature (21±1° C.), relative humidity (36±1%) and placed in a 12-hr light-dark cycle (lights on at 6:00 AM and off at 6:00 PM) room at SmartLabs vivarium (21 Erie Street, Cambridge, MA) under protocol MIL-110. Animals were allowed ad libitum access to chow (LabDiet Prolab Isopro RMH 3000, St. Louis, MO) and water. The rats were dosed with 0 mg/kg (vehicle), 1 mg/kg, 3 mg/kg, 10 mg/kg, or 30 mg/kg of a compound of the invention formulated as a suspension in 0.5% methylcellulose, 0.5% Tween80 or as a solution in MilliQ water. […]
Plasma and CSF samples were collected under isoflurane anesthesia as follows: samples of CSF and blood were collected at 1, 2, and 6 hours post-dosing. […] Plasma and CSF was collected and analyzed for the presence of a compound.
The compound of the invention, cGMP and the internal standard were extracted from plasma and CSF by precipitation. Samples were analyzed using liquid chromatography (LC) with tandem mass spectrometric detection (MS/MS) using electrospray ionization. […] CSF cGMP data were graphed using Graphpad Prism, version 8.4.3 and are expressed as means±S.E.M. Data were analyzed with a Mixed-effects analysis followed by Dunnett's multiple comparison test comparing to vehicle-treated rats within timepoint. […]

In the case of `Cc1cc(F)c(Cc2nc(-c3ncc(F)c(O)n3)cn3ccnc23)cc1F` [Compound I-14, 5-fluoro-2-(8-(2,5-difluoro-4-methylbenzyl)imidazo[1,2-a]pyrazin-6-yl)pyrimidin-4-ol], the “side effects of the treatment” value [1] is reported as “No obvious side effects”, the “concentration of cGMP in rat CSF vs vehicle-treated rats” value (from here on “concentration … vs vehicle-treated rats”) (cGMP; 1 mg/kg PO as sodium salt, two hours after dosing) is reported as “significantly higher cGMP in CSF” and the “concentration … vs vehicle-treated rats” value (cGMP; 3 mg/kg PO as sodium salt, one and two hours after dosing) is reported as “significantly higher concentrations of cGMP in the CSF”. For the same compound, the “concentration … vs vehicle-treated rats” value (cGMP; 10 or 30 mg/kg PO as sodium salt, 1, 2 and 6 hours postdose) was “significantly higher cGMP in the CSF”.
